{"source": "paper PMC8803428", "about": "“Pharmacokinetics of Ginsenoside Rb1, Rg3, Rk1, Rg5, F2, and Compound K from Red Ginseng Extract in Healthy Korean Volunteers” (Evidence-based Complementary and Alternative Medicine : eCAM, 2022)", "key": {"[1]": {"assay": "Pharmacokinetics of ginsenosides in plasma after a single oral dose of RG or BRG capsules in healthy Korean men (LC-MS/MS)", "format": "in vivo, human", "details": "for half-life: T 1/2; for Tmax: T max", "from_the_text": "This study was designed as a randomized, open-label, single-dose, crossover study with washout every 1 week to evaluate the pharmacokinetics and safety of ginsenosides. Subjects were randomly assigned to either the RG or BRG group during the first period of the study (Figure 2). After 1 week of the washout period, other products that were not received in the first period were provided. All enrolled subjects were hospitalized at Bestian Clinical Trial Center on the day before taking RG or BRG. Subjects were provided regular meals, and additional food intake was restricted after the meal. The next day, the subjects who had maintained the fasting state for 10 h took the capsules corresponding to 5 g of RG and BRG orally. Water was restricted for 1 h before and after intake, and food intake was restricted for 4 h after administration. After 4 h, all subjects received a standardized meal. In addition, lying down or sleeping was prohibited for 8 h after oral administration. Blood samples (5 mL) were collected before dosing and at each time point (0, 0.5, 1, 2, 4, 6, 8, 10, 12, and 24 h) after dosing. All blood samples were collected in heparin-treated tubes. The blood samples were promptly centrifuged at 3,000 rpm for 10 min at 4°C, and the plasma samples obtained were stored in a deep freezer at −70 ± 10°C until assay.\nAll analyses were performed using an Agilent 1200 series HPLC system (Agilent) with a Luna Phenyl-Hexyl column (2.0 × 150 mm, 5 μm; Phenomenex, CA, USA). The mobile phase comprised water (solvent A) and acetonitrile (solvent B) containing 0.1% formic acid. The flow rate of the mobile phase was 0.25–0.35 mL/min. The initial condition of 70% solvent A was set to 5% solvent A over 15 min. The content of ginsenosides in human plasma was measured using an API 5500 mass spectrometer (AB Sciex, Foster City, CA, USA) capable of multiple reaction monitoring (MRM). The parent-daughter ion pairs monitored were 845.5 ⟶ 799.6 for Rg1, 1153.6 ⟶ 1107.5 for Rb1, 829.4 ⟶ 783.5 for Rg3, and F2, 811.4 ⟶ 161.0 for Rg5 and Rk1, 667.4 ⟶ 161.0 for CK, and 825.4 ⟶ 779.3 for digoxin as an IS in the negative ion mode. Nitrogen gas was used in the nebulizer and the collision cell. The ion spray voltage was set to 5500 V.\nStandard plasma samples were prepared such that each ginsenoside was in the concentration range of 0.5–100 ng/mL; 10 μL of a standard mixture of six kinds of ginsenosides (Rg1, Rb1, Rg5 + Rk1, F2, and CK) was added to 90 μL of blank human plasma. Rg3 was prepared in the concentration range of 0.2–40 ng/mL. Standard plasma samples (100 μL) were added to 200 μL of methanol containing 50 ng/mL digoxin, an IS. These were mixed for 1 min and then centrifuged at 12,000 rpm for 5 min at 4°C. Then, 100 μL of the supernatant was transferred to an LC vial, and 10 μL was injected into the LC-MS/MS system. Plasma samples stored at −70°C were thawed at room temperature. Samples for LC-MS/MS analysis were pretreated in the same manner as standard plasma samples.\nPlasma concentrations of seven ginsenosides were calculated from calibration curves by calculating the ratio of the peak area of the test substance to the peak area of the IS. The following pharmacokinetic parameters were measured using Phoenix WinNonlin 6.3 (Pharsight Co, CA, USA): time to reach maximum observed plasma drug concentration (Tmax), maximum observed plasma drug concentration (Cmax), area under the plasma drug concentration-time curve from 0 h to the final measured time (AUC(0–t)), area under the plasma drug concentration–time curve from 0 h to infinity (AUC(0–∞)), and terminal elimination half-life (t1/2)."}, "[2]": {"assay": "Stability of the ginsenosides in human plasma (QC samples, LC-MS/MS method validation)", "format": "in vitro ADME", "details": "human; for Short-term stability, concentration found: 19 h; for Autosampler stability, concentration found: 34 h; for Long-term stability, concentration found: 50 days", "description": "The LC-MS/MS method was validated to determine selectivity, lower limits of quantification (LLOQ), accuracy, precision, recovery, matrix effect, and stability, according to the guideline for validating the bioanalytical method. The selectivity of the method was evaluated by comparison of blank plasma from six different men to the corresponding spiked plasma sample at the level of LLOQ to investigate the potential interferences at the LC chromatographic conditions for ginsenoside analytes and IS. The signal-to-noise ratio (S/N) of the LLOQ sample was at least five times the response compared to the blank samples. Each calibration curve was constructed by plotting the peak area ratio (y) of the analyte to IS against the spiked concentrations (x) of each analyte. Linearity was assessed by weighted (1/x^2) least squares regression analysis. The LLOQ was defined as the lowest concentration on the calibration curve with an S/N ratio of 10, where the precision and accuracy bias were within ±20% by five replicate analyses. The intra- and interday precision and accuracy assessments were performed at four concentrations with five replicates on the same day and three consecutive days, respectively. The acceptance criterion recommended by the guideline of precision and the accuracy was ±15% of the nominal concentration. The recovery of the seven ginsenosides was determined at three QC levels with three replicates by comparing the peak areas of plasma extracts spiked with analytes before extraction with those of the postextraction spiked samples at the same concentration. The matrix effects were investigated by comparing the peak areas of the analytes dissolved in the pretreated blank plasma with the corresponding concentrations prepared in the reconstitution solution with three replicates. The stability of the analytes in human plasma was assessed by analyzing five replicates of plasma samples at low, medium, and high QC levels under four different conditions. Short-term stability was evaluated after the exposure of QC samples to room temperature for 19 h before processing and analysis. The freeze and thaw stability was tested after three repeated cycles of thawing at room temperature and freezing at approximately −70°C. The long-term stability was assessed after storage at approximately −70°C for 50 days. The post-preparative stability was examined after the exposure of processed samples at ambient temperature (stored in an HPLC autosampler) for 34 h."}}, "data": [{"smiles": "CC(C)=CCC[C@](C)(O[C@@H]1O[C@H](CO)[C@@H](O)[C@H](O)[C@H]1O)[C@H]1CC[C@]2(C)[C@@H]1[C@H](O)C[C@@H]1[C@@]3(C)CC[C@H](O)C(C)(C)[C@@H]3[C@@H](O[C@@H]3O[C@H](CO)[C@@H](O)[C@H](O)[C@H]3O)C[C@]12C", "note": "[Rg1, ginsenoside Rg1]", "values": [{"measurement": "detection in the plasma samples", "setting": "[1]; after oral RG or BRG", "result": "not detected"}]}, {"smiles": "CC(C)=CCC[C@](C)(O[C@@H]1O[C@H](CO)[C@@H](O)[C@H](O)[C@H]1O)[C@H]1CC[C@]2(C)[C@@H]1[C@H](O)C[C@@H]1[C@@]3(C)CC[C@H](O[C@@H]4O[C@H](CO)[C@@H](O)[C@H](O)[C@H]4O)C(C)(C)[C@@H]3CC[C@]12C", "note": "[Ginsenoside F2, ginsenoside F2]", "values": [{"measurement": "detection in plasma at the initial time point (0 h) of the second treatment period", "setting": "[1]; in vivo", "result": "did not detect"}, {"measurement": "AUC(0-t)", "setting": "[1]; male, human, in vivo, po, AUC(0–t)", "result": "74.1 ± 33", "unit": "ng·h/mL"}, {"measurement": "AUC(0-inf)", "setting": "[1]; male, human, in vivo, po, AUC(0–∞)", "result": "90.7 ± 43", "unit": "ng·h/mL"}, {"measurement": "Cmax", "setting": "[1]; male, human, in vivo, po, C max", "result": "5.83 ± 2.35", "unit": "ng/mL"}, {"measurement": "half-life", "setting": "[1]; male, human, in vivo, po", "result": "9.77 ± 7.71", "unit": "h"}, {"measurement": "Tmax", "setting": "[1]; male, human, in vivo, po", "result": "6.62 ± 1.71", "unit": "h"}, {"measurement": "Freeze-thaw stability, concentration found", "setting": "[2]; 1.5 ng/mL", "result": "98.29 ± 4.06", "unit": "%"}, {"measurement": "Freeze-thaw stability, concentration found", "setting": "[2]; 80 ng/mL", "result": "95.95 ± 1.10", "unit": "%"}, {"measurement": "Short-term stability, concentration found", "setting": "[2]; 1.5 ng/mL", "result": "99.21 ± 7.70", "unit": "%"}, {"measurement": "Short-term stability, concentration found", "setting": "[2]; 80 ng/mL", "result": "96.53 ± 4.04", "unit": "%"}, {"measurement": "Autosampler stability, concentration found", "setting": "[2]; 1.5 ng/mL", "result": "99.02 ± 8.01", "unit": "%"}, {"measurement": "Autosampler stability, concentration found", "setting": "[2]; 80 ng/mL", "result": "96.29 ± 0.99", "unit": "%"}, {"measurement": "Long-term stability, concentration found", "setting": "[2]; 1.5 ng/mL", "result": "101.83 ± 3.76", "unit": "%"}, {"measurement": "Long-term stability, concentration found", "setting": "[2]; 80 ng/mL", "result": "99.02 ± 2.04", "unit": "%"}]}, {"smiles": "CC(C)=CCC[C@](C)(O)[C@H]1CC[C@]2(C)[C@@H]1[C@H](O)C[C@@H]1[C@@]3(C)CC[C@H](O[C@@H]4O[C@H](CO)[C@@H](O)[C@H](O)[C@H]4O[C@@H]4O[C@H](CO)[C@@H](O)[C@H](O)[C@H]4O)C(C)(C)[C@@H]3CC[C@]12C", "note": "[Rg3, ginsenoside Rg3]", "values": [{"measurement": "detection in plasma at the initial time point (0 h) of the second treatment period", "setting": "[1]; in vivo", "result": "did not detect"}, {"measurement": "T 1/2", "setting": "[1]; male, human, in vivo, po", "result": "5.70 ± 0.73^∗ h"}, {"measurement": "T max", "setting": "[1]; male, human, in vivo, po", "result": "4.23 ± 1.54", "unit": "h"}, {"measurement": "half-life", "setting": "[1]; male, human, in vivo, po", "result": "5.58 ± 3.63", "unit": "h"}, {"measurement": "Tmax", "setting": "[1]; male, human, in vivo, po", "result": "3.85 ± 1.28", "unit": "h"}, {"measurement": "Freeze-thaw stability, concentration found", "setting": "[2]; 0.6 ng/mL", "result": "97.73 ± 3.53", "unit": "%"}, {"measurement": "Freeze-thaw stability, concentration found", "setting": "[2]; 32 ng/mL", "result": "95.33 ± 2.75", "unit": "%"}, {"measurement": "Short-term stability, concentration found", "setting": "[2]; 0.6 ng/mL", "result": "102.32 ± 2.68", "unit": "%"}, {"measurement": "Short-term stability, concentration found", "setting": "[2]; 32 ng/mL", "result": "96.32 ± 1.48", "unit": "%"}, {"measurement": "Autosampler stability, concentration found", "setting": "[2]; 0.6 ng/mL", "result": "102.95 ± 5.52", "unit": "%"}, {"measurement": "Autosampler stability, concentration found", "setting": "[2]; 32 ng/mL", "result": "97.25 ± 1.45", "unit": "%"}, {"measurement": "Long-term stability, concentration found", "setting": "[2]; 0.6 ng/mL", "result": "104.15 ± 8.68", "unit": "%"}, {"measurement": "Long-term stability, concentration found", "setting": "[2]; 32 ng/mL", "result": "99.84 ± 3.12", "unit": "%"}]}]}
